Experimental data as given in PubChem BioAssay (NCI).
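Test compounds were applied to cells in 96-well plates for 48 hours at 5 doses. TGI: concentration producing complete growth inhibition.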

Columns and labels:
Assay in all cases: growth of human tumour cells (NCI), 48 h
RXF 393 renal = tested on: RXF 393 renal
K-562 leukemia = tested on: K-562 leukemia
M14 melanoma = tested on: M14 melanoma
T-47D breast = tested on: T-47D breast
HOP-62 NSCLC = tested on: HOP-62 NSCLC
DU-145 prostate = tested on: DU-145 prostate
HCT-15 colon = tested on: HCT-15 colon
SNB-19 CNS = tested on: SNB-19 CNS
NCI/ADR-RES ovarian = tested on: NCI/ADR-RES ovarian
OVCAR-4 ovarian = tested on: OVCAR-4 ovarian
786-0 renal = tested on: 786-0 renal
OVCAR-8 ovarian = tested on: OVCAR-8 ovarian
MCF7 breast = tested on: MCF7 breast
U251 CNS = tested on: U251 CNS
SF-539 CNS = tested on: SF-539 CNS
HS 578T breast = tested on: HS 578T breast
MALME-3M melanoma = tested on: MALME-3M melanoma
HT29 colon = tested on: HT29 colon
SK-MEL-5 melanoma = tested on: SK-MEL-5 melanoma
COLO 205 colon = tested on: COLO 205 colon
ACHN renal = tested on: ACHN renal
NCI-H23 lung = tested on: NCI-H23 lung
MOLT-4 leukemia = tested on: MOLT-4 leukemia
SR leukemia = tested on: SR leukemia
HL-60(TB) leukemia = tested on: HL-60(TB) leukemia
NCI-H460 lung = tested on: NCI-H460 lung
PC-3 prostate = tested on: PC-3 prostate
UACC-257 melanoma = tested on: UACC-257 melanoma
UACC-62 melanoma = tested on: UACC-62 melanoma
NCI-H226 lung = tested on: NCI-H226 lung
NCI-H522 lung = tested on: NCI-H522 lung
OVCAR-3 ovarian = tested on: OVCAR-3 ovarian
EKVX NSCLC = tested on: EKVX NSCLC
UO-31 renal = tested on: UO-31 renal
A549 NSCLC = tested on: A549 NSCLC
IGROV1 ovarian = tested on: IGROV1 ovarian
SK-MEL-28 melanoma = tested on: SK-MEL-28 melanoma
SNB-75 CNS = tested on: SNB-75 CNS
BT-549 breast = tested on: BT-549 breast
HOP-92 NSCLC = tested on: HOP-92 NSCLC
OVCAR-5 ovarian = tested on: OVCAR-5 ovarian
SF-268 CNS = tested on: SF-268 CNS
CCRF-CEM leukemia = tested on: CCRF-CEM leukemia
HCT-116 colon = tested on: HCT-116 colon
TK-10 renal = tested on: TK-10 renal
MDA-MB-231 breast = tested on: MDA-MB-231 breast
SF-295 CNS = tested on: SF-295 CNS
HCC-2998 colon = tested on: HCC-2998 colon
SN12C renal = tested on: SN12C renal
MDA-MB-435 = tested on: MDA-MB-435
SK-OV-3 ovarian = tested on: SK-OV-3 ovarian
LOX IMVI melanoma = tested on: LOX IMVI melanoma
KM12 colon = tested on: KM12 colon
SW-620 colon = tested on: SW-620 colon
A498 renal = tested on: A498 renal
CAKI-1 renal = tested on: CAKI-1 renal
SK-MEL-2 melanoma = tested on: SK-MEL-2 melanoma
RPMI-8226 leukemia = tested on: RPMI-8226 leukemia

## O=C1/C(=C/C=C/c2ccccc2)CCC1CNc1ccccc1 (stereo not drawn)
RXF 393 renal
  TGI: 38.1 µM
K-562 leukemia
  TGI: > 35.6 µM
M14 melanoma
  TGI: > 100 µM
T-47D breast
  TGI: > 68.4 µM
HOP-62 NSCLC
  TGI: > 100 µM
DU-145 prostate
  TGI: > 100 µM
HCT-15 colon
  TGI: 50.1 µM
SNB-19 CNS
  TGI: > 89.8 µM
NCI/ADR-RES ovarian
  TGI: > 100 µM
OVCAR-4 ovarian
  TGI: > 100 µM
786-0 renal
  TGI: 41.2 µM
OVCAR-8 ovarian
  TGI: > 100 µM
MCF7 breast
  TGI: 32.7 µM
U251 CNS
  TGI: > 100 µM
SF-539 CNS
  TGI: > 77.5 µM
HS 578T breast
  TGI: > 100 µM
MALME-3M melanoma
  TGI: > 100 µM
HT29 colon
  TGI: 63.9 µM
SK-MEL-5 melanoma
  TGI: > 100 µM
COLO 205 colon
  TGI: > 94.3 µM
ACHN renal
  TGI: > 100 µM
NCI-H23 lung
  TGI: > 80.9 µM
MOLT-4 leukemia
  TGI: > 100 µM
SR leukemia
  TGI: > 100 µM
HL-60(TB) leukemia
  TGI: 16.7 µM
NCI-H460 lung
  TGI: > 100 µM
PC-3 prostate
  TGI: > 100 µM
UACC-257 melanoma
  TGI: > 100 µM
UACC-62 melanoma
  TGI: > 100 µM
NCI-H226 lung
  TGI: > 100 µM
NCI-H522 lung
  TGI: > 22.7 µM
OVCAR-3 ovarian
  TGI: > 68.9 µM
EKVX NSCLC
  TGI: > 100 µM
UO-31 renal
  TGI: > 100 µM
A549 NSCLC
  TGI: > 100 µM
IGROV1 ovarian
  TGI: > 71.8 µM
SK-MEL-28 melanoma
  TGI: > 100 µM
SNB-75 CNS
  TGI: > 100 µM
BT-549 breast
  TGI: > 69 µM
HOP-92 NSCLC
  TGI: > 95.1 µM
OVCAR-5 ovarian
  TGI: > 100 µM
SF-268 CNS
  TGI: > 100 µM
CCRF-CEM leukemia
  TGI: 27.5 µM
HCT-116 colon
  TGI: > 50 µM
TK-10 renal
  TGI: > 74.7 µM
MDA-MB-231 breast
  TGI: 51.7 µM
SF-295 CNS
  TGI: > 100 µM
HCC-2998 colon
  TGI: > 100 µM
SN12C renal
  TGI: 63.9 µM
MDA-MB-435
  TGI: > 86 µM
SK-OV-3 ovarian
  TGI: > 100 µM
LOX IMVI melanoma
  TGI: 40 µM
KM12 colon
  TGI: 39.3 µM
SW-620 colon
  TGI: > 90.4 µM
A498 renal
  TGI: > 100 µM
CAKI-1 renal
  TGI: > 100 µM

## COc1cc(C2c3cc4c(cc3OC(C)(N3CCCC3)C2C)OCO4)cc(OC)c1OC (stereo not drawn)
RXF 393 renal
  TGI: 2.93 µM
K-562 leukemia
  TGI: 0.908 µM
M14 melanoma
  TGI: 4.81 µM
T-47D breast
  TGI: > 100 µM
HOP-62 NSCLC
  TGI: 66.8 µM
DU-145 prostate
  TGI: 2.57 µM
HCT-15 colon
  TGI: 11.3 µM
SNB-19 CNS
  TGI: > 100 µM
NCI/ADR-RES ovarian
  TGI: 0.522 µM
OVCAR-4 ovarian
  TGI: > 100 µM
786-0 renal
  TGI: > 100 µM
MCF7 breast
  TGI: 16.3 µM
U251 CNS
  TGI: 23.3 µM
SF-539 CNS
  TGI: 0.716 µM
HS 578T breast
  TGI: 0.721 µM
MALME-3M melanoma
  TGI: > 55.2 µM
HT29 colon
  TGI: 0.836 µM
SK-MEL-5 melanoma
  TGI: 1.58 µM
SK-MEL-2 melanoma
  TGI: 52.1 µM
COLO 205 colon
  TGI: 0.528 µM
ACHN renal
  TGI: > 79.9 µM
NCI-H23 lung
  TGI: 6.32 µM
MOLT-4 leukemia
  TGI: 10.6 µM
SR leukemia
  TGI: 9.62 µM
HL-60(TB) leukemia
  TGI: 0.685 µM
NCI-H460 lung
  TGI: 19.2 µM
PC-3 prostate
  TGI: > 100 µM
UACC-257 melanoma
  TGI: > 100 µM
UACC-62 melanoma
  TGI: 19.1 µM
NCI-H226 lung
  TGI: 2.05 µM
NCI-H522 lung
  TGI: 0.612 µM
OVCAR-3 ovarian
  TGI: 0.528 µM
EKVX NSCLC
  TGI: > 50.8 µM
UO-31 renal
  TGI: 57 µM
A549 NSCLC
  TGI: > 100 µM
IGROV1 ovarian
  TGI: 46.7 µM
SK-MEL-28 melanoma
  TGI: > 100 µM
SNB-75 CNS
  TGI: 0.65 µM
BT-549 breast
  TGI: 12.2 µM
HOP-92 NSCLC
  TGI: 33.6 µM
OVCAR-5 ovarian
  TGI: > 20.5 µM
SF-268 CNS
  TGI: > 92.9 µM
CCRF-CEM leukemia
  TGI: > 50.3 µM
HCT-116 colon
  TGI: 16.5 µM
TK-10 renal
  TGI: > 67.1 µM
RPMI-8226 leukemia
  TGI: 11.7 µM
MDA-MB-231 breast
  TGI: 2.42 µM
SF-295 CNS
  TGI: 0.661 µM
HCC-2998 colon
  TGI: 2.57 µM
SN12C renal
  TGI: 30.8 µM
MDA-MB-435
  TGI: 0.377 µM
SK-OV-3 ovarian
  TGI: > 62.6 µM
LOX IMVI melanoma
  TGI: > 31.4 µM
KM12 colon
  TGI: 9.45 µM
SW-620 colon
  TGI: > 100 µM
A498 renal
  TGI: 5.7 µM
CAKI-1 renal
  TGI: > 20.2 µM
